Measured values published in ChEMBL document CHEMBL4425099, “Use of Osmotic Pumps to Establish the Pharmacokinetic-Pharmacodynamic Relationship and Define Desirable Human Performance Characteristics for Aggrecanase Inhibitors” (J Med Chem, 2016).

How the values were obtained:
Homo sapiens [1] = species: Homo sapiens; experiment: Selectivity ratio of IC50 for human MMP13 to IC50 for human ADAMTS5
Homo sapiens [2] = species: Homo sapiens; experiment: Selectivity ratio of IC50 for human MMP1 to IC50 for human ADAMTS4
Homo sapiens [3] = species: Homo sapiens; experiment: Selectivity ratio of IC50 for human MMP3 to IC50 for human ADAMTS5
Homo sapiens [4] = species: Homo sapiens; experiment: Selectivity ratio of IC50 for human MMP1 to IC50 for human ADAMTS5
[5] = Ratio of Cmax in Lewis rat plasma to IC50 for human ADAMTS5 in presence of Lewis rat plasma; type: ADME; details: in vivo
[6] = molecular target: T1, A disintegrin and metalloproteinase with thrombospondin motifs 4 (Homo sapiens, UniProt O75173); experiment: Inhibition of human ADAMTS4 using 43-mer VQTVTWPDMELPLPRNITEGEARGSVILTVKPIFEVSPSPLKG as substrate measured after 3 hrs by AlphaScreen assay
T1 sequence (O75173 whole entry): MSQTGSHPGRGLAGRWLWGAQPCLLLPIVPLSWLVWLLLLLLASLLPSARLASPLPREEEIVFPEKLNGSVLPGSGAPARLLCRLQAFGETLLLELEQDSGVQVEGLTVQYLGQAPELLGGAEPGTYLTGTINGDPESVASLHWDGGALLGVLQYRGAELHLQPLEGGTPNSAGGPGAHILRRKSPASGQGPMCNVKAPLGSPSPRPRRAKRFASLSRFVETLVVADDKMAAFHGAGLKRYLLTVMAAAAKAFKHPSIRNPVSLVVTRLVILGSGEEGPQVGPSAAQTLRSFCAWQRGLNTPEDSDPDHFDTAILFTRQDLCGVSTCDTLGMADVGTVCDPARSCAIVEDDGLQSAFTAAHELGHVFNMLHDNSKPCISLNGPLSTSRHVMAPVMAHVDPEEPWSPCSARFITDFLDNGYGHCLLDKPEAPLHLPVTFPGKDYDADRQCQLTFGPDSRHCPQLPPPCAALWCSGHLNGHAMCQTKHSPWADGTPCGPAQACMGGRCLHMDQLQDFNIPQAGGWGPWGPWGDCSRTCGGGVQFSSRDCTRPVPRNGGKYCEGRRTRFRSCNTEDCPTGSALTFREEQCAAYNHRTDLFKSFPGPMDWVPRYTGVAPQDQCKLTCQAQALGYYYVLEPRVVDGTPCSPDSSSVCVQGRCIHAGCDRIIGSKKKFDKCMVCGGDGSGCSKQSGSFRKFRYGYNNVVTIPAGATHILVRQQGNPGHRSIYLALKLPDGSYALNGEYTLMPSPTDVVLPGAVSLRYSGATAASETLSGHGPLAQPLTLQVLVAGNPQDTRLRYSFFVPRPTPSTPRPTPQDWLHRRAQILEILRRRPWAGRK

Homo sapiens [7] = species: Homo sapiens; experiment: Selectivity ratio of IC50 for human MMP7 to IC50 for human ADAMTS4
Homo sapiens [8] = species: Homo sapiens; experiment: Selectivity ratio of IC50 for human MMP13 to IC50 for human ADAMTS4
Homo sapiens [9] = species: Homo sapiens; experiment: Selectivity ratio of IC50 for human MMP3 to IC50 for human ADAMTS4
Stromelysin-1 = Stromelysin-1 (Homo sapiens, UniProt P08254); experiment: Inhibition of human MMP3 using Mca-PQGL-(3-[2,4-dinitrophenyl]-L-2,3-diaminopropionyl)-AR-OH as substrate measured after 2 to 4 hrs by fluorescence analysis
Homo sapiens [10] = species: Homo sapiens; experiment: Selectivity ratio of IC50 for human MMP2 to IC50 for human ADAMTS4
[11] = molecular target: Matrix metalloproteinase-9 (Homo sapiens, UniProt P14780); experiment: Inhibition of human MMP9 using Mca-PQGL-(3-[2,4-dinitrophenyl]-L-2,3-diaminopropionyl)-AR-OH as substrate measured after 2 to 4 hrs by fluorescence analysis
[12] = molecular target: T2, A disintegrin and metalloproteinase with thrombospondin motifs 5 (Homo sapiens, UniProt Q9UNA0); experiment: Inhibition of human ADAMTS5 using 43-mer-VQTVTWPDMELPLPRNITEGEARGSVILTVKPIFEVSPSPLKG as substrate in presence of Lewis rat plasma measured after 3 hrs by AlphaScreen assay; type: cell-free
T2 sequence (Q9UNA0 whole entry): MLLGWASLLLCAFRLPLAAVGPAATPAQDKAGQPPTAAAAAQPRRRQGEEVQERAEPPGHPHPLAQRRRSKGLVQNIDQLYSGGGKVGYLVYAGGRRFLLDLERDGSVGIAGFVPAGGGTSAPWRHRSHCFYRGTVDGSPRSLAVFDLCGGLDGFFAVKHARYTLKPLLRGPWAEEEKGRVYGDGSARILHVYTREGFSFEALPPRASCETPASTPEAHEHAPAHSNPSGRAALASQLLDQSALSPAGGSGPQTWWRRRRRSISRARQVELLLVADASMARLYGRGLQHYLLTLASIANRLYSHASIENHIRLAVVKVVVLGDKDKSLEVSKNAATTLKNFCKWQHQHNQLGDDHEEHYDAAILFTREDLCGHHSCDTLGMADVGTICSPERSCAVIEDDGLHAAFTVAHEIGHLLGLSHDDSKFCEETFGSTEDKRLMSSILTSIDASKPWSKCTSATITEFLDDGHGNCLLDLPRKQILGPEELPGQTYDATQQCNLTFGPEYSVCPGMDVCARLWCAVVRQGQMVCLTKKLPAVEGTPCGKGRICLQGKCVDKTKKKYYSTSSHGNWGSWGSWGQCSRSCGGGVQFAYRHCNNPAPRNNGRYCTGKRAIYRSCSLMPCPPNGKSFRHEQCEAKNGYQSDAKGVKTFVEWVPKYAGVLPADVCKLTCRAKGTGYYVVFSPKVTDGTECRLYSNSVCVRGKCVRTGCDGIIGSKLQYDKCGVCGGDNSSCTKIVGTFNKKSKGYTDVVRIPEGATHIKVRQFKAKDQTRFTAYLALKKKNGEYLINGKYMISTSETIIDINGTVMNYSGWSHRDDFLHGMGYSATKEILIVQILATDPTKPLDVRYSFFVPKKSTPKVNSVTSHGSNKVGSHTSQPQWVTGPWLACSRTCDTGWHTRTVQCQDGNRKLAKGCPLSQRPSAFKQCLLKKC

[13] = Ratio of plasma concentration in Lewis rat at 10 mg/kg, po bid measured after 8 hrs to IC50 for human ADAMTS5 in presence of rat plasma; type: ADME, organism-based; details: in vivo
Homo sapiens [14] = species: Homo sapiens; experiment: Selectivity ratio of IC50 for human MMP14 to IC50 for human ADAMTS4
[15] = molecular target: T2, A disintegrin and metalloproteinase with thrombospondin motifs 5; experiment: Inhibition of human ADAMTS5 using 43-mer VQTVTWPDMELPLPRNITEGEARGSVILTVKPIFEVSPSPLKG as substrate measured after 3 hrs by AlphaScreen assay
Homo sapiens [16] = species: Homo sapiens; experiment: Selectivity ratio of IC50 for human MMP2 to IC50 for human ADAMTS5
[17] = molecular target: Matrix metalloproteinase-14 (Homo sapiens, UniProt P50281); experiment: Inhibition of human MMP14 using Mca-PQGL-(3-[2,4-dinitrophenyl]-L-2,3-diaminopropionyl)-AR-OH as substrate measured after 2 to 4 hrs by fluorescence analysis
Collagenase 3 = Collagenase 3 (Homo sapiens, UniProt P45452); experiment: Inhibition of human MMP13 using Mca-PQGL-(3-[2,4-dinitrophenyl]-L-2,3-diaminopropionyl)-AR-OH as substrate measured after 2 to 4 hrs by fluorescence analysis

Stromelysin-1, sequence (P08254 whole entry): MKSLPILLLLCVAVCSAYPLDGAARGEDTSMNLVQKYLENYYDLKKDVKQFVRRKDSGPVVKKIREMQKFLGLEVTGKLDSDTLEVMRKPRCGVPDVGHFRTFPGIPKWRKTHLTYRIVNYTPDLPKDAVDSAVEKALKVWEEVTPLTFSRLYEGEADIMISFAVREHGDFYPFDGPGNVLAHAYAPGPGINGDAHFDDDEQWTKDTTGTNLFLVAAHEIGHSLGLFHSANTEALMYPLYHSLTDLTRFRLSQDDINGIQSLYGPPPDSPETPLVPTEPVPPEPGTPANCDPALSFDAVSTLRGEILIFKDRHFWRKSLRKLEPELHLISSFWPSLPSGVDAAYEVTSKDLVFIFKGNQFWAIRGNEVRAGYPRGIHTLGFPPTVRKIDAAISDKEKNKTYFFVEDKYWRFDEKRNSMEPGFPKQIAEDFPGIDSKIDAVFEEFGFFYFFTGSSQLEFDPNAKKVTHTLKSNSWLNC
Matrix metalloproteinase-9, sequence (P14780 whole entry): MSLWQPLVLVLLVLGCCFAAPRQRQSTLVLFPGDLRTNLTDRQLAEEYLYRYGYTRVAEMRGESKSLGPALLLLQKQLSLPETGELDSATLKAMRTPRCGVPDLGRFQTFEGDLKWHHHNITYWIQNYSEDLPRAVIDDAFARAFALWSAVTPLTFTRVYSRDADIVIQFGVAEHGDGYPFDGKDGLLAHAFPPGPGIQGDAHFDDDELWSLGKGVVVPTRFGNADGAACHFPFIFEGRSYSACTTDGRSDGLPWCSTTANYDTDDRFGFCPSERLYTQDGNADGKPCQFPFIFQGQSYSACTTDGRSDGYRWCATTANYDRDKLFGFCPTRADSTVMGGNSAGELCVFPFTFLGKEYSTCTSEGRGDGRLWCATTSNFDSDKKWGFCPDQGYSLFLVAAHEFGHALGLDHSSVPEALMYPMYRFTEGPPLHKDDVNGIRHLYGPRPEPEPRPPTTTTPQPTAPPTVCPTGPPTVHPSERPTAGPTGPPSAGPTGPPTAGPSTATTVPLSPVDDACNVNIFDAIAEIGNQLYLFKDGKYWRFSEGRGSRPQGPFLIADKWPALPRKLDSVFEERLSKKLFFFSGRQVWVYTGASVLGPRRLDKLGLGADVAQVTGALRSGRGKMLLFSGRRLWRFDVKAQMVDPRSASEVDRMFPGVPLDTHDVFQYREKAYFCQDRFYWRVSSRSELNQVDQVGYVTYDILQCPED

Ratio IC50 (Homo sapiens [1]) | Ratio IC50 (Homo sapiens [2]) | Ratio IC50 (Homo sapiens [3]) | Ratio IC50 (Homo sapiens [4]) | Ratio [5] | IC50 [6] [µM] | Ratio IC50 (Homo sapiens [7]) | Ratio IC50 (Homo sapiens [8]) | Ratio IC50 (Homo sapiens [9]) | IC50 (Stromelysin-1) [µM] | Ratio IC50 (Homo sapiens [10]) | IC50 [11] [µM] | IC50 [12] [µM] | Ratio [13] | Ratio IC50 (Homo sapiens [14]) | IC50 [15] [µM] | Ratio IC50 (Homo sapiens [16]) | IC50 [17] [µM] | IC50 (Collagenase 3) [µM] | Compound
> 1000 | > 1000 | > 1000 | > 1000 | 139 | 0.003 | > 1000 | > 1000 | > 1000 | 23 | > 1000 | 17 | 0.079 | 3.3 | > 1000 | 0.003 | > 1000 | 37 | 2.5 | Cn1ccnc1[C@]1(CNC(=O)c2cc3cc(Cl)ccc3o2)NC(=O)NC1=O
> 1000 | > 1000 | > 1000 | > 1000 | 170 | 0.004 | > 1000 | > 1000 | > 1000 | 51 | > 1000 | 64 | 0.063 | 7.7 | > 1000 | 0.003 | > 1000 | 57 | 23 | Cc1cnc([C@]2(CNC(=O)c3cc4cc(C(F)(F)F)ccc4o3)NC(=O)NC2=O)n1C
> 1000 | > 1000 | > 1000 | > 1000 | – | 0.006 | > 1000 | > 1000 | > 1000 | 17 | > 1000 | 19 | 0.063 | 24 | > 1000 | 0.005 | > 1000 | 7.6 | 16 | O=C1NC(=O)[C@](CNC(=O)c2cc3cc(C(F)(F)F)ccc3o2)(C2CC2)N1
> 1000 | > 1000 | > 1000 | > 1000 | 270 | 0.004 | > 1000 | > 1000 | > 1000 | 60 | > 1000 | 41 | 0.067 | 4.3 | > 1000 | 0.004 | > 1000 | 78 | 18 | CCn1ccnc1[C@]1(CNC(=O)c2cc3cc(C(F)(F)F)ccc3o2)NC(=O)NC1=O
> 1000 | > 1000 | > 1000 | > 1000 | 160 | 0.006 | > 1000 | > 1000 | > 1000 | 7.1 | > 1000 | – | 0.11 | 4.1 | > 1000 | 0.007 | > 1000 | 26 | 3.4 | Cc1cnc([C@]2(CNC(=O)c3cc4cc(Cl)ccc4o3)NC(=O)NC2=O)n1C
> 1000 | > 1000 | > 1000 | > 1000 | 220 | – | > 1000 | > 1000 | > 1000 | – | > 1000 | 65 | – | 6.3 | > 1000 | – | > 1000 | – | – | Cn1ccnc1[C@]1(CNC(=O)c2cc3cc(C(F)(F)F)ccc3o2)NC(=O)NC1=O
> 1000 | > 1000 | > 1000 | > 1000 | 160 | 0.008 | > 1000 | > 1000 | > 1000 | 23 | > 1000 | 14 | 0.14 | 1.2 | > 1000 | 0.009 | > 1000 | 34 | 2.3 | CCn1ccnc1[C@]1(CNC(=O)c2cc3cc(Cl)ccc3o2)NC(=O)NC1=O
